The source of these data is paper PMC11601441 (bioRxiv, 2024).

Format in all cases: cell-based
In experiment [1] the target is mouse GPR17 (mGPR17) (Mus musculus, UniProt Q6NS65). As to the kind of experiment: calcium flux in GLUTag cells expressing mGPR17. In general terms: Calcium assays in cells follow changes in intracellular calcium, usually with a dye or a luminescent sensor.
Experiment [2] has as its target human GPR17 long isoform V96M (hGPR17L-V96M) (Homo sapiens, UniProt Q13304, V96M). Description: calcium flux in GLUTag cells expressing hGPR17L-V96M.
Experiment [3] deals with human GPR17 long isoform (hGPR17L) (Homo sapiens, UniProt Q13304).
Sequence of human GPR17 long isoform (hGPR17L) (Q13304 whole entry, canonical isoform): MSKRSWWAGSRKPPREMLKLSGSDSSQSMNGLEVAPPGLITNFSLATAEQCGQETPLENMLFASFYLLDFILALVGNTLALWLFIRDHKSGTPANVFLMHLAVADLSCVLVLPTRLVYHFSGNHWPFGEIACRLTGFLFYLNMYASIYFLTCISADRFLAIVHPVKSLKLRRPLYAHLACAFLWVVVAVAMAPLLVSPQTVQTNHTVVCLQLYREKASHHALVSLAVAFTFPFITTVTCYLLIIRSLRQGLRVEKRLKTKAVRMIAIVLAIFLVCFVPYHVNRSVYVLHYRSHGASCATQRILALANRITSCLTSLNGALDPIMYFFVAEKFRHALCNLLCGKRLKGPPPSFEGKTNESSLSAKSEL

pEC50, pIC50: −log10 of the molar value.

Sequence of human GPR17 long isoform V96M (hGPR17L-V96M) (Q13304 whole entry V96M, canonical isoform): as the sequence (Q13304 whole entry, canonical isoform) above, with V96M counted along it
Sequence of mouse GPR17 (mGPR17) (Q6NS65 whole entry, canonical isoform): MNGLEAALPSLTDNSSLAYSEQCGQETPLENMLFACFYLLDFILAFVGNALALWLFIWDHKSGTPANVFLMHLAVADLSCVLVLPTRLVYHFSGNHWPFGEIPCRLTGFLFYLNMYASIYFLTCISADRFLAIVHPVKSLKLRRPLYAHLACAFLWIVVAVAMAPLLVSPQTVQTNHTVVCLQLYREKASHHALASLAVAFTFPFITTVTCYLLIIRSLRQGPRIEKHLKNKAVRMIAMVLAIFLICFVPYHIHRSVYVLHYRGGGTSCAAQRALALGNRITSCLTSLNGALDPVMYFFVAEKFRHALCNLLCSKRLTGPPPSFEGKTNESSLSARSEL

For orientation: pEC50 means the negative decadic logarithm of the EC50, by convention in mol/L. In general, pIC50 refers to the IC50 on a negative log10 scale, so that one unit is a factor of ten. Low readings indicate a large IC50, high ones a small IC50. On to `O=C(O)CCc1c(C(=O)O)[nH]c2cc(Cl)cc(Cl)c12` [MDL29,951], for which the pEC50 is 6.17 in experiment [1] and 6.24 in experiment [2]. The pIC50 in experiment [3] is 7.54.
